According to patent US20220041606A1, “POSITIVE ALLOSTERIC MODULATORS OF THE MUSCARINIC ACETYLCHOLINE RECEPTOR M1” (Vanderbilt University, priority 2020, published 2022):

Assays:
human mAChR M1 [1] = target: T1, human mAChR M1 (Homo sapiens, UniProt P11229); test: mAChR M1 cell-based functional assay (calcium mobilization), agonist activity upon compound addition; details: CHO-K1 cells expressing hM1; for EC50: compound alone, before acetylcholine addition; for Emax: relative to the maximum for acetylcholine
T1 construct: host or cells: CHO-K1 cells (ATCC), stably transfected using Lipofectamine2000
T1 sequence (P11229 1-460): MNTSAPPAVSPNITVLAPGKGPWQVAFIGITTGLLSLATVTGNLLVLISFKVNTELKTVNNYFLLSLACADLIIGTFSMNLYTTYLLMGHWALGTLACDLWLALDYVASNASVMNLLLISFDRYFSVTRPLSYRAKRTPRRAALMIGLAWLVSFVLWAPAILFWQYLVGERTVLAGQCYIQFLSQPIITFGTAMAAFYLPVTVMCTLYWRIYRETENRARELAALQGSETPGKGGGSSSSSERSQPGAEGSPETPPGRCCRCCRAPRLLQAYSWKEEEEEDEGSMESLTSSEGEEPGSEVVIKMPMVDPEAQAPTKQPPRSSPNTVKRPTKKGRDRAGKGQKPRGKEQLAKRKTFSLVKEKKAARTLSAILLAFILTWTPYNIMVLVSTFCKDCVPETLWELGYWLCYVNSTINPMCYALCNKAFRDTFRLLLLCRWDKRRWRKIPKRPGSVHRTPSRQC
Summary of the method: (§1)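 Fluorescence ratio calcium read-out (Fluo-4 AM, FDSS 6000) in human M1-expressing CHO-K1 cells. Agonist activity taken as concentration-dependent rise after compound addition; potentiation as enhancement of a subsequent EC20 acetylcholine challenge. Curves from 11-point threefold dilutions fitted by four-parameter logistic; Emax expressed versus acetylcholine maximum.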

human mAChR M1 [2] = target: T1, human mAChR M1; test: mAChR M1 cell-based functional assay (calcium mobilization), PAM activity: increase in the EC20 acetylcholine response; details: CHO-K1 cells expressing hM1; potentiation of EC20 acetylcholine response
Summary of the method: as §1

| SMILES | EC50 (human mAChR M1 [1]) [µM] | Emax (human mAChR M1 [1]) [%] | EC50 (human mAChR M1 [2]) [µM] | Emax (human mAChR M1 [2]) [%] |
| --- | --- | --- | --- | --- |
| Cc1cccc(-c2cc(F)c(Cn3cc(C(=O)N[C@H]4CCOC[C@@H]4O)c4ncccc4c3=O)c(F)c2)c1 [Compound A31, 6-((3,5-difluoro-3′-methyl-[1,1′-biphenyl]-4-yl)methyl)-N-((3R,4S)-3-hydroxytetrahydro-2H-pyran-4-yl)-5-oxo-5,6-dihydro-1,6-naphthyridine-8-carboxamide] | > 10 | < 5 | 2.6 | 70 |
| Cn1cc2c(-c3cc(F)c(Cn4cc(C(=O)N[C@H]5CCOC[C@@H]5O)c5ncccc5c4=O)c(F)c3)cccc2n1 [Compound A21, 6-(2,6-difluoro-4-(2-methyl-2H-indazol-4-yl)benzyl)-N-((3R,4S)-3-hydroxytetrahydro-2H-pyran-4-yl)-5-oxo-5,6-dihydro-1,6-naphthyridine-8-carboxamide] | 1.23 | 31 | 0.019 | 72 |
| Cn1cc(-c2ccc(Cn3cc(C(=O)N[C@H]4CCCCC[C@@H]4O)c4ncccc4c3=O)cc2)cn1 [Compound A87, N-((1S,2S)-2-hydroxycycloheptyl)-6-(4-(1-methyl-1H-pyrazol-4-yl)benzyl)-5-oxo-5,6-dihydro-1,6-naphthyridine-8-carboxamide] | > 10 | < 5 | 0.82 | 44 |
| Cn1ccc(-c2ccc(Cn3cc(C(=O)N[C@H]4CCOC[C@@H]4O)c4occc4c3=O)c(F)c2)n1 [Compound D6, 5-(2-fluoro-4-(1-methyl-1H-pyrazol-3-yl)benzyl)-N-((3R,4S)-3-hydroxytetrahydro-2H-pyran-4-yl)-4-oxo-4,5-dihydrofuro[3,2-c]pyridine-7-carboxamide] | > 10 | < 5 | > 10 | 68 |
| O=C(N[C@H]1CCOC[C@@H]1O)c1cn(Cc2ccc(-c3cscn3)cc2)c(=O)n2ccnc12 [Compound B17, N-((3R,4S)-3-hydroxytetrahydro-2H-pyran-4-yl)-5-oxo-6-(4-(thiazol-4-yl)benzyl)-5,6-dihydroimidazo[1,2-c]pyrimidine-8-carboxamide] | > 10 | 24 | 0.47 | 83 |
| Cn1ccc(-c2ccc(Cn3cc(C(=O)N[C@H]4CCCCC[C@@H]4O)c4occc4c3=O)c(F)c2)n1 [Compound D9, 5-(2-fluoro-4-(1-methyl-1H-pyrazol-3-yl)benzyl)-N-((1S,2S)-2-hydroxycycloheptyl)-4-oxo-4,5-dihydrofuro[3,2-c]pyridine-7-carboxamide] | > 10 | < 5 | 3.09 | 80 |
| Cn1ccc(-c2ccc(Cn3cc(C(=O)N[C@H]4CCCCC[C@@H]4O)c4sccc4c3=O)c(F)c2)n1 [Compound D28, 5-(2-fluoro-4-(1-methyl-1H-pyrazol-3-yl)benzyl)-N-((1S,2S)-2-hydroxycycloheptyl)-4-oxo-4,5-dihydrothieno[3,2-c]pyridine-7-carboxamide] | > 10 | < 5 | > 10 | 40 |
| Cc1nc(-c2ccc(Cn3cc(C(=O)N[C@H]4CCOC[C@@H]4O)c4ncccc4c3=O)cc2)co1 [Compound A19, N-((3R,4S)-3-hydroxytetrahydro-2H-pyran-4-yl)-6-(4-(2-methyloxazol-4-yl)benzyl)-5-oxo-5,6-dihydro-1,6-naphthyridine-8-carboxamide] | – | 20 | 2.49 | 67 |
| Cn1ccc(-c2ccc(Cn3cc(C(=O)N[C@H]4CCCC[C@@H]4O)c4ncn(C)c4c3=O)c(F)c2)n1 [Compound C1, 5-(2-Fluoro-4-(1-methyl-1H-pyrazol-3-yl)benzyl)-N-((1S,2S)-2-hydroxycyclohexyl)-3-methyl-4-oxo-4,5-dihydro-3H-imidazo[4,5-c]pyridine-7-carboxamide] | – | 8 | 0.25 | 65 |
| Cc1cn2c(=O)n(Cc3c(F)cc(-c4cccc5nn(C)cc45)cc3F)cc(C(=O)N[C@H]3CCOC[C@@H]3O)c2n1 [Compound B29, 6-(2,6-difluoro-4-(2-methyl-2H-indazol-4-yl)benzyl)-N-((3R,4S)-3-hydroxytetrahydro-2H-pyran-4-yl)-2-methyl-5-oxo-5,6-dihydroimidazo[1,2-c]pyrimidine-8-carboxamide] | > 10 | < 5 | 4.31 | 40 |
| Cn1cc2c(-c3cc(F)c(Cn4cc(C(=O)NCC(C)(C)O)c5nccnc5c4=O)c(F)c3)cccc2n1 [Compound A73, 6-(2,6-difluoro-4-(2-methyl-2H-indazol-4-yl)benzyl)-N-(2-hydroxy-2-methylpropyl)-5-oxo-5,6-dihydropyrido[3,4-b]pyrazine-8-carboxamide] | > 10 | < 5 | 4.04 | 67 |
| Cn1cc(-c2ccc(Cn3cc(C(=O)N[C@H]4CCC[C@@H]4O)c4occc4c3=O)c(F)c2)cn1 [Compound D14, 5-(2-fluoro-4-(1-methyl-1H-pyrazol-4-yl)benzyl)-N-((1S,2S)-2-hydroxycyclopentyl)-4-oxo-4,5-dihydrofuro[3,2-c]pyridine-7-carboxamide] | > 10 | < 5 | > 10 | 51 |
| Cn1ccc(-c2ccc(Cn3cc(C(=O)NC4CC5(COC5)C4)c4ncccc4c3=O)c(F)c2)n1 [Compound A5, 6-(2-Fluoro-4-(1-methyl-1H-pyrazol-3-yl)benzyl)-5-oxo-N-(2-oxaspiro[3.3]heptan-6-yl)-5,6-dihydro-1,6-naphthyridine-8-carboxamide] | > 10 | < 5 | 2.74 | 44 |
| Cn1nccc1-c1ccc(Cn2cc(C(=O)N[C@H]3CCOC[C@@H]3O)c3ncccc3c2=O)c(F)c1 [Compound A45, 6-(2-fluoro-4-(1-methyl-1H-pyrazol-5-yl)benzyl)-N-((3R,4S)-3-hydroxytetrahydro-2H-pyran-4-yl)-5-oxo-5,6-dihydro-1,6-naphthyridine-8-carboxamide] | > 10 | < 5 | 4.37 | 70 |
| Cn1ccc(-c2ccc(Cn3cc(C(=O)N[C@H]4CCC[C@@H]4O)c4ncccc4c3=O)c(F)c2)n1 [Compound A3, 6-(2-fluoro-4-(1-methyl-1H-pyrazol-3-yl)benzyl)-N-((1S,2S)-2-hydroxycyclopentyl)-5-oxo-5,6-dihydro-1,6-naphthyridine-8-carboxamide] | > 10 | < 5 | 1.66 | 83 |
| Cn1cc2c(-c3cc(F)c(Cn4cc(C(=O)N[C@H]5CCOC[C@@H]5O)c5ncn(C)c5c4=O)c(F)c3)cccc2n1 [Compound C4, 5-(2,6-difluoro-4-(2-methyl-2H-indazol-4-yl)benzyl)-N-((3R,4S)-3-hydroxytetrahydro-2H-pyran-4-yl)-3-methyl-4-oxo-4,5-dihydro-3H-imidazo[4,5-c]pyridine-7-carboxamide] | > 10 | < 5 | 0.31 | 58 |
| Cc1cncc(-c2cc(F)c(Cn3cc(C(=O)N[C@H]4CCOC[C@@H]4O)c4ncccc4c3=O)c(F)c2)c1 [Compound A33, 6-(2,6-difluoro-4-(5-methylpyridin-3-yl)benzyl)-N-((3R,4S)-3-hydroxytetrahydro-2H-pyran-4-yl)-5-oxo-5,6-dihydro-1,6-naphthyridine-8-carboxamide] | 3.22 | 13 | 0.86 | 64 |
| O=C(N[C@H]1CCCCC[C@@H]1O)c1cn(Cc2ccc(-c3cscn3)cc2)c(=O)c2cccnc12 [Compound A60, N-((1S,2S)-2-hydroxycycloheptyl)-5-oxo-6-(4-(thiazol-4-yl)benzyl)-5,6-dihydro-1,6-naphthyridine-8-carboxamide] | > 10 | < 5 | 0.61 | 34 |
| Cn1ccc(-c2ccc(Cn3cc(C(=O)N[C@H]4CCCC[C@@H]4O)c4occc4c3=O)c(F)c2)n1 [Compound D7, 5-(2-fluoro-4-(1-methyl-1H-pyrazol-3-yl)benzyl)-N-((1S,2S)-2-hydroxycyclohexyl)-4-oxo-4,5-dihydrofuro[3,2-c]pyridine-7-carboxamide] | > 10 | < 5 | 6.05 | 82 |
| Cn1cc2c(-c3cc(F)c(Cn4cc(C(=O)N[C@@H]5CC[C@H]5O)c5occc5c4=O)c(F)c3)cccc2n1 (stereo in doubt) [Compound D21, 5-(2,6-difluoro-4-(2-methyl-2H-indazol-4-yl)benzyl)-N-((1R,2R)-2-hydroxycyclobutyl)-4-oxo-4,5-dihydrofuro[3,2-c]pyridine-7-carboxamide] | > 10 | < 5 | 2.19 | 75 |
| Cn1cc2c(-c3cc(F)c(Cn4cc(C(=O)N[C@H]5CCCC[C@@H]5O)c5nccnc5c4=O)c(F)c3)cccc2n1 [Compound A52, 6-(2,6-Difluoro-4-(2-methyl-2H-indazol-4-yl)benzyl)-N-((1S,2S)-2-hydroxycyclohexyl)-5-oxo-5,6-dihydropyrido[3,4-b]pyrazine-8-carboxamide] | 4.36 | 50 | 0.4 | 64 |
